This is an account of results in PubChem BioAssay (NCI).

Some test systems named below: IGROV1 ovarian; HL-60(TB) leukemia; OVCAR-3 ovarian; HCC-2998 colon; SK-MEL-5 melanoma; A498 renal; UACC-62 melanoma; OVCAR-8 ovarian; T-47D breast; A549 NSCLC; MDA-MB-231 breast; DU-145 prostate; SNB-75 CNS; NCI-H23 lung; U251 CNS; M14 melanoma; NCI-H522 lung; PC-3 prostate; EKVX NSCLC; HS 578T breast.
Holding throughout (assay): DTP human tumour cell line panel, 48 h

The structures appear in SMILES notation.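 Values below derive from 48-hour exposures of cells grown in 96-well plates, with endpoints linearly interpolated between the two concentrations bracketing the appropriate inhibition level. TGI: total growth inhibition.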

Turning to `COC(=O)NCCc1[nH]nc2c1C(=O)C=C(Nc1ccccc1OC)C2=O`, the TGI in the assay with IGROV1 ovarian was 65.3 µM; with HL-60(TB) leukemia, 52.7 µM; in the assay on OVCAR-3 ovarian it was greater than 100 µM; in the assay with HCC-2998 colon, 40.3 µM; with SK-MEL-5 melanoma, 27.1 µM; in the assay with A498 renal, greater than 100 µM. The TGI in the assay on UACC-62 melanoma is 39.9 µM; in the assay with OVCAR-8 ovarian it was 35.1 µM; in the assay on T-47D breast it was greater than 100 µM; with A549 NSCLC, greater than 100 µM; with MDA-MB-231 breast, 94.3 µM; in the assay on DU-145 prostate it was greater than 100 µM. For the same compound, the TGI was greater than 100 µM in the assay with SNB-75 CNS; 32.7 µM in the assay with NCI-H23 lung; 72.5 µM in the assay on U251 CNS; 62.9 µM in the assay on M14 melanoma; 78.2 µM in the assay with NCI-H522 lung; greater than 100 µM in the assay on PC-3 prostate. Further, the TGI with EKVX NSCLC is greater than 100 µM; with HS 578T breast it was 99.7 µM.

As for `CC(/C=C/c1ccccc1)=N\NC(=S)N/N=C(C)/C=C/c1ccccc1`, the TGI was greater than 100 µM with IGROV1 ovarian; greater than 100 µM in the assay on HL-60(TB) leukemia; 66.5 µM in the assay with OVCAR-3 ovarian; greater than 100 µM with HCC-2998 colon; 42.8 µM in the assay with SK-MEL-5 melanoma; 7.51 µM in the assay with A498 renal. The TGI is greater than 100 µM with UACC-62 melanoma; 64.5 µM in the assay on OVCAR-8 ovarian; greater than 100 µM in the assay on T-47D breast; greater than 100 µM in the assay with A549 NSCLC; 33.9 µM in the assay with MDA-MB-231 breast; greater than 100 µM with DU-145 prostate. Also, the TGI in the assay on SNB-75 CNS was 48.7 µM; in the assay with NCI-H23 lung, greater than 100 µM; in the assay with U251 CNS, 16.2 µM; with M14 melanoma, greater than 100 µM; with NCI-H522 lung, 69 µM; with PC-3 prostate, greater than 100 µM. Also, the TGI in the assay with EKVX NSCLC and in the assay with HS 578T breast was greater than 100 µM throughout.

Take `O=c1c2ccccc2nc(-c2ccccc2)n1/N=C/c1ccccc1[N+](=O)[O-]`: the TGI with IGROV1 ovarian, with HL-60(TB) leukemia, in the assay with OVCAR-3 ovarian, in the assay on HCC-2998 colon, in the assay with SK-MEL-5 melanoma and with A498 renal was greater than 100 µM each time. Moreover, the TGI in the assay on UACC-62 melanoma is greater than 100 µM; in the assay on OVCAR-8 ovarian, greater than 100 µM; in the assay with T-47D breast, greater than 100 µM; with A549 NSCLC it was greater than 100 µM; in the assay with MDA-MB-231 breast, greater than 72.8 µM; in the assay on DU-145 prostate, greater than 100 µM. Besides, the TGI in the assay on SNB-75 CNS is 34.2 µM; in the assay on NCI-H23 lung, 58.8 µM; in the assay on U251 CNS, greater than 94.8 µM; in the assay on M14 melanoma, greater than 100 µM; in the assay with NCI-H522 lung, greater than 100 µM; in the assay with PC-3 prostate, greater than 100 µM. The TGI was greater than 100 µM in the assay with EKVX NSCLC and 15.9 µM in the assay on HS 578T breast.

Regarding `COC1=CC(=O)C2=C(C1=O)[C@H]1CC[C@]3(C)C(=O)CC[C@H]3[C@@H]1CC2`, the TGI in the assay on IGROV1 ovarian was 44.5 µM; in the assay on HL-60(TB) leukemia, 22.4 µM; in the assay with OVCAR-3 ovarian, 52.3 µM; with HCC-2998 colon it was greater than 100 µM; in the assay on SK-MEL-5 melanoma it was 33.2 µM; in the assay with A498 renal, greater than 100 µM. In addition, the total growth inhibition concentration (TGI) in the assay with UACC-62 melanoma is greater than 100 µM; with OVCAR-8 ovarian, 33.1 µM; in the assay with T-47D breast, 57.2 µM; in the assay on A549 NSCLC, greater than 100 µM; in the assay on MDA-MB-231 breast, 16.9 µM; in the assay on DU-145 prostate, 57.1 µM. The TGI was greater than 100 µM with SNB-75 CNS; greater than 100 µM in the assay with NCI-H23 lung; greater than 100 µM with U251 CNS; greater than 100 µM in the assay on M14 melanoma; 59.8 µM in the assay with NCI-H522 lung; 85.2 µM in the assay on PC-3 prostate. For the same compound, the TGI amounted to 30.4 µM in the assay on EKVX NSCLC and 70.5 µM with HS 578T breast.

Turning to `Cc1cccc2c(N)c3cccc(C(=O)NCCNCCN)c3nc12`, the TGI was greater than 100 µM with IGROV1 ovarian; greater than 100 µM in the assay with HL-60(TB) leukemia; greater than 93.7 µM with OVCAR-3 ovarian; greater than 40.8 µM in the assay on HCC-2998 colon; greater than 58.4 µM in the assay on SK-MEL-5 melanoma; greater than 55.9 µM in the assay with A498 renal. Further, the total growth inhibition concentration (TGI) in the assay on UACC-62 melanoma is 39.8 µM; in the assay on OVCAR-8 ovarian, 17.8 µM; in the assay with T-47D breast it was greater than 86.1 µM; with A549 NSCLC it was 20.4 µM; with MDA-MB-231 breast, 36.1 µM; with DU-145 prostate, greater than 72.4 µM. In addition, the TGI was 4.88 µM in the assay on SNB-75 CNS; 6.21 µM in the assay with NCI-H23 lung; greater than 24.5 µM in the assay with U251 CNS; greater than 100 µM in the assay with M14 melanoma; 1.36 µM in the assay with NCI-H522 lung; greater than 100 µM in the assay with PC-3 prostate. The TGI in the assay with EKVX NSCLC is greater than 94.6 µM; in the assay with HS 578T breast, 24.6 µM.

On to `OC(Cc1cnnc2ccccc12)C(Cl)(Cl)Cl` (stereo not given), for which the concentration for total growth inhibition (TGI) with IGROV1 ovarian, in the assay on HL-60(TB) leukemia, in the assay on OVCAR-3 ovarian, in the assay with HCC-2998 colon, with SK-MEL-5 melanoma and in the assay on A498 renal was greater than 10 µM each time. The concentration for total growth inhibition (TGI) with UACC-62 melanoma, in the assay on OVCAR-8 ovarian, in the assay with T-47D breast, with A549 NSCLC, in the assay with MDA-MB-231 breast and in the assay on DU-145 prostate was greater than 10 µM throughout. Also, the TGI with SNB-75 CNS, in the assay with NCI-H23 lung, in the assay on U251 CNS, with M14 melanoma, with NCI-H522 lung and in the assay on PC-3 prostate was greater than 10 µM each time. The TGI in the assay with EKVX NSCLC and with HS 578T breast was greater than 10 µM each time.

Consider `COc1ccc(/C(=N/Nc2nc3ccccc3n2Cc2ccccc2)C(=O)O)cc1`, for which the TGI in the assay on IGROV1 ovarian is 40.7 µM; in the assay on HL-60(TB) leukemia, 11.5 µM; with OVCAR-3 ovarian it was greater than 100 µM; in the assay with HCC-2998 colon, 48.3 µM; in the assay on SK-MEL-5 melanoma, 37.6 µM; in the assay on A498 renal, 44.5 µM. Moreover, the TGI in the assay with UACC-62 melanoma is 21.4 µM; in the assay with OVCAR-8 ovarian, greater than 100 µM; in the assay on T-47D breast, 70.7 µM; with A549 NSCLC, greater than 100 µM; with MDA-MB-231 breast, 80.2 µM; in the assay with DU-145 prostate, greater than 100 µM. The TGI is 81.9 µM in the assay with SNB-75 CNS; 43.3 µM in the assay with NCI-H23 lung; greater than 100 µM in the assay with U251 CNS; 38.9 µM in the assay on M14 melanoma; 68.8 µM in the assay with NCI-H522 lung; greater than 100 µM in the assay on PC-3 prostate. In addition, the TGI with EKVX NSCLC and in the assay on HS 578T breast was greater than 100 µM in each case.
